Assay [1] concerns LasR dependent quorum sensing controlled promoter, prsaL (reporter strain MW1.pUM15). Kind of assay: Signal Reception Assay (SRA), inhibition of the reporter in the presence of 0.3 μM 3-oxo-C12-HSL. It counts as cell-based, Pseudomonas aeruginosa. The following applies: compound at 100 μM. The text has this:
(§1) The CSA yields a fluorescent signal reporting both signal synthesis and signal reception. The SRA yields a fluorescent signal due to signal reception. Compounds affecting signal reception can be detected by SRA. The SRA can detect compounds that modulate quorum sensing by inhibiting signal reception or activating signal reception. Inhibitor compounds are identified by performing the SRA with exogenous autoinducer at a concentration of half maximal activation and detecting changes in fluorescence indicative of inhibition of signal reception. Activator compounds are identified by performing the SRA in the absence of exogenous autoinducer.
The plasmid pUM15 carries a YFP reporter under control of a LasR dependent quorum sensing controlled promoter, prsaL. […] This is referred to as the Signal Reception Assay, as only those compounds that modulate signal reception will be detected.
Cells were grown in LB with 50 mM 3-(N-morpholino)propanesulfonic acid (MOPS) pH 7.0, 300 μg/mL carbenicillin. A single colony of MW1.pUM15 from a freshly struck plate was used to inoculate a starter culture and grown shaking at 30° C. not above an absorbance at 600 nm (A600) of 1.5. […]
Nanoplate format: Assay reagents were dispensed with the flying reagent dispenser, FRD (Vertex Pharmaceuticals Incorporated, San Diego, Calif.). […] Fluorescence was read with a SpectroFluor Plus plate reader (Tecan US, Durham, N.C.). […]

Assay [2] shares this test system. The experiment in a line: Signal Reception Assay (SRA), activation of the reporter in the absence of an activating signal. The assay is classed as cell-based, Pseudomonas aeruginosa. The following applies: for activation of the reporter (agonist activity): compound at 100 μM, absence of an activating signal, SRA, MW1.pUM15.
Source text: as §1
The plasmid pUM15 carries a YFP reporter under control of a LasR dependent quorum sensing controlled promoter, prsaL. When the plasmid is harbored by MW1, a strain lacking the ability to produce acylated homoserine lactones, the reporter is induced only in the presence of exogenous autoinducer. This is referred to as the Signal Reception Assay, as only those compounds that modulate signal reception will be detected.
Cells were grown in LB with 50 mM 3-(N-morpholino)propanesulfonic acid (MOPS) pH 7.0, 300 μg/mL carbenicillin. A single colony of MW1.pUM15 from a freshly struck plate was used to inoculate a starter culture and grown shaking at 30° C. not above an absorbance at 600 nm (A600) of 1.5. Cells were subcultured to A600 of 0.05 and grown shaking at 37° C. for 1-2 h. These mid-logarithmic cells were then added to dried down 3-oxo-C12-HSL to result in a final concentration of 0.3 μM. Induced cells were pipetted into wells containing the test compound. Uninduced cells were included as a control for the assay window. When the assay was used to characterize a potential activator, no homoserine lactone was added.
Nanoplate format: Assay reagents were dispensed with the flying reagent dispenser, FRD (Vertex Pharmaceuticals Incorporated, San Diego, Calif.). An aliquot of 1.5 μL reporter culture was added to wells in 3,456-well plates (3456 plates) and grown for 8-12 h before reading fluorescence with the topography-compensating plate reader, tcPR (Vertex Pharmaceuticals Incorporated, San Diego, Calif.). DR96 format: an aliquot of 50 μL culture was added to 96 well plate and grown for 6-8 h. Fluorescence was read with a SpectroFluor Plus plate reader (Tecan US, Durham, N.C.).
In all formats, plates were sealed in a humidified container and incubated staticly at 37° C. Fluorescence measurements were made with an excitation wavelength of 485 nm and emission wavelength of […]. To evaluate growth in the presence of test compound, the absorbance at 620 nm was also recorded.
The compounds in Table 2 were purchased from Chembridge Corp. (San Diego, Calif.), Specs (Wakefield, R.I.), Interbioscreen Ltd. (Moscow, Russia) and Chemical Diversity Labs, Inc. (San Diego, Calif.), and were characterized with the reporter strain MW1.pUM15 in both microtiter plate format and a shaking tube format. […] The tube format was performed to eliminate plate effects that may mask low levels of inhibition.
In both formats, the compounds were tested for (1) activation of the reporter in the absence of an activating signal, and (2) inhibition of the reporter in the presence of 0.3 μM 3-oxo-C12-HSL. All compounds were tested at 100 μM for their ability to activate or inhibit quorum sensing using the SRA assay. […]

Consider `O=C(Nc1ccccc1NC(=O)c1cccc(Cl)c1)c1cccc(Cl)c1` [Compound 1], for which, in assay [1], the “inhibition of the reporter (antagonist activity)” value was “largest degree of inhibition”.

For the compound `O=C(Oc1c(Br)cc(Br)cc1CNC(=O)c1ccccc1Cl)c1ccc(F)cc1` [Compound 2], in assay [2], the “activation of the reporter (agonist activity)” value (“activation of the reporter” for short) is given as “activating effects”.

In the case of `Cc1ccccc1C(=O)Oc1c(Br)cc(Br)cc1CNC(=O)c1ccccc1Cl` [Compound 3], the “activation of the reporter” value in assay [2] is “activating effects”.

With `Cc1cc(C)c(OC(=O)c2ccc(Cl)cc2Cl)c(CNC(=O)c2ccccc2Cl)c1` [Compound 4], in assay [2], the “activation of the reporter” value is “activating effects”.

In the case of `O=C(NCc1cc(Br)cc(Br)c1OC(=O)c1ccccc1[N+](=O)[O-])c1ccccc1Cl` [Compound 5], the “activation of the reporter” value in assay [2] is “activating effects”. In assay [2] (fluorescence in the SRA as a function of concentration, in the presence of 0.75% DMSO), the “activation efficacy (FIG. 2), compared with 3-oxo-C12-HSL” value was “an activating effect equal to 3-oxo-C12-HSL but at reduced concentrations”.

For the origin of these results see US20080287546A1, “Quorum Sensing Modulators” (priority 2005, published 2008).
